These results are taken from patent US20230263822A1, “MODULATION OF FACTOR 11 EXPRESSION” (Ionis Pharmaceuticals, Inc., priority 2008, published 2023).

Strand notation (5' to 3'): a small letter for the sugar, then the base; units joined by * are phosphorothioate-linked, units joined directly phosphodiester-linked; [ ] holds rarer units or linkages, { } end groups; capitals alone tell only the bases. e = 2'-O-(2-methoxyethyl) (MOE); [5mC] = 5-methylcytosine; d = 2'-deoxy (DNA)

One series relates to blood coagulation. Description: PT and aPTT assay in cynomolgus monkeys (Example 45). It is filed as in vivo. The settings on record: escalating dose regimen, platelet poor plasma. The method, then:
Groups, each consisting of two male and three female monkeys, were injected subcutaneously with ISIS 416838, ISIS 416850, ISIS 416858, ISIS 416864, or ISIS 417002 in escalating doses. Antisense oligonucleotide was administered to the monkeys at 5 mg/kg three times per a week for week 1; 5 mg/kg twice per week for weeks 2 and 3; 10 mg/kg three times per week for week 4; 10 mg/kg twice per week for weeks 5 and 6; 25 mg/kg three times per week for week 7; and 25 mg/kg twice per week for weeks 8, 9, 10, 11, and 12. One control group, consisting of two male and three female monkeys, was injected subcutaneously with PBS according to the same dosing regimen. An additional experimental group, consisting of two male and three female monkeys, was injected subcutaneously with ISIS 416850 in a chronic, lower dose regimen. Antisense oligonucleotide was administered to the monkeys at 5 mg/kg three times per week for week 1; 5 mg/kg twice per week for week 2 and 3; 10 mg/kg three times per week for week 4; and 10 mg/kg twice per week for weeks 5 to 12. Body weights were measured weekly. Blood samples were collected 14 days and 5 days before the start of treatment and subsequently once per week for Factor 11 protein activity analysis in plasma, fibrinogen measurement, PT and aPTT measurements, bleeding times, and measurement of various hematologic factors. On day 85, the monkeys were euthanized by exsanguination while under deep anesthesia, and organs harvested for further analysis.
Blood samples were collected in tubes containing sodium citrate. PT and aPTT were determined in duplicate with an ACL 9000 coagulation instrument (Instrumentation Laboratory, Italy). The results were interpolated on a standard curve of serial dilutions citrated control monkey plasma tested to give a reported result in percent normal.
Prothrombin Time (PT) and Activated Partial Thromboplastin Time (aPTT) were measured using platelet poor plasma (PPP) from monkeys treated with ISIS oligonucleotides. PT and aPTT values are provided in Tables 116 and 117 and are reported as International Normalized Ratio (INR) values. INR values for PT and aPTT were determined by dividing the PT or aPTT value for each experimental group by the PT or aPTT for the PBS treated group. This ratio was then raised to the power of the International Sensitivity Index (ISI) of the tissue factor used. The ISIS oligonucleotide, ISIS 416850, given with the chronic dose regimen is distinguished from the other oligonucleotides with an asterisk (*).

Series [1] is described as follows: Tolerability in Sprague-Dawley rats: kidney function (Example 44). It is filed as in vivo. The settings on record: 50 mg/kg s.c. twice per week for 6 weeks; for BUN / Creatinine: plasma.

For the substance “ISIS 416838: MOE gapmer, nucleobases 1018 to 1042 of SEQ ID NO: 1 (Table 6) (antisense GCAACCGGGATGATGAGTGC; MOE gapmer, wing and gap sizes not given here)”, the “PT ratio (INR)” value in the series on blood coagulation (day 8) is 1.03; in the series on blood coagulation (day 15), 1.03; in the series with blood coagulation (day 22) it was 1.07; in the series with blood coagulation (day 29), 1.03; in the series with blood coagulation (day 36) it was 1.05; in the series with blood coagulation (day 43) it was 1.03. The “PT ratio (INR)” value is reported as 1.02 in the series with blood coagulation (day 50); 1.04 in the series on blood coagulation (day 57); 1.04 in the series on blood coagulation (day 64); 1.02 in the series with blood coagulation (day 71); 1.04 in the series on blood coagulation (day 78); 1.05 in the series with blood coagulation (day 85). Further, the “PT ratio (INR)” value in the series on blood coagulation (day −5) and with blood coagulation (day −14) was 1.00 throughout. In addition, the “aPTT ratio (INR)” value with blood coagulation (day 8) was determined as 1.07; in the series on blood coagulation (day 15), 1.05; in the series with blood coagulation (day 22), 1.20; in the series with blood coagulation (day 29) it was 1.19; in the series on blood coagulation (day 36), 1.20; in the series on blood coagulation (day 43), 1.18. Besides, the “aPTT ratio (INR)” value was found to be 1.25 with blood coagulation (day 50); 1.21 in the series with blood coagulation (day 57); 1.18 in the series on blood coagulation (day 64); 1.15 in the series with blood coagulation (day 71); 1.19 in the series with blood coagulation (day 78); 1.22 in the series with blood coagulation (day 85). Besides, the “aPTT ratio (INR)” value in the series with blood coagulation (day −5) and in the series on blood coagulation (day −14) was 1.00 throughout.
“ISIS 416858: MOE gapmer, nucleobases 1275 to 1318 of SEQ ID NO: 1 (Table 8) (antisense ACGGCATTGGTGCACAGTTT; MOE gapmer, wing and gap sizes not given here)”: the “PT ratio (INR)” value in the series on blood coagulation (day 8) came out at 1.05; with blood coagulation (day 15), 1.07; in the series on blood coagulation (day 22), 1.06; with blood coagulation (day 29), 1.08; in the series on blood coagulation (day 36), 1.07; in the series with blood coagulation (day 43) it was 1.08. For the same substance, the “PT ratio (INR)” value in the series on blood coagulation (day 50) is reported as 1.03; in the series on blood coagulation (day 57), 1.09; with blood coagulation (day 64), 1.09; in the series with blood coagulation (day 71), 1.07; in the series on blood coagulation (day 78), 1.10; in the series on blood coagulation (day 85), 1.07. The “PT ratio (INR)” value in the series on blood coagulation (day −5) and in the series on blood coagulation (day −14) was 1.00 throughout. The “aPTT ratio (INR)” value with blood coagulation (day 8) came to 1.03; with blood coagulation (day 15), 1.07; in the series with blood coagulation (day 22), 1.18; with blood coagulation (day 29) it was 1.20; with blood coagulation (day 36), 1.36; with blood coagulation (day 43), 1.28. In addition, the “aPTT ratio (INR)” value with blood coagulation (day 50) is recorded as 1.55; in the series on blood coagulation (day 57) it was 1.59; with blood coagulation (day 64), 1.60; in the series on blood coagulation (day 71) it was 1.70; in the series with blood coagulation (day 78) it was 1.79; in the series with blood coagulation (day 85) it was 1.76. Also, the “aPTT ratio (INR)” value in the series on blood coagulation (day −5) and in the series with blood coagulation (day −14) was 1.00 each time.
In the case of “ISIS 416864: MOE gapmer, nucleobases 1275 to 1318 of SEQ ID NO: 1 (Table 8) (antisense GGCAGCGGACGGCATTGGTG; MOE gapmer, wing and gap sizes not given here)”, the “PT ratio (INR)” value is on record as 1.02 with blood coagulation (day 8); 1.07 in the series with blood coagulation (day 15); 1.03 in the series on blood coagulation (day 22); 1.06 in the series with blood coagulation (day 29); 1.06 in the series on blood coagulation (day 36); 1.04 with blood coagulation (day 43). Besides, the “PT ratio (INR)” value in the series on blood coagulation (day 50) amounted to 1.01; in the series with blood coagulation (day 57) it was 1.08; in the series on blood coagulation (day 64), 1.10; in the series with blood coagulation (day 71), 1.07; in the series with blood coagulation (day 78) it was 1.08; in the series on blood coagulation (day 85), 1.13. Besides, the “PT ratio (INR)” value with blood coagulation (day −5) and with blood coagulation (day −14) was 1.00 throughout. The “aPTT ratio (INR)” value in the series with blood coagulation (day 8) came out at 1.05; in the series with blood coagulation (day 15), 1.03; with blood coagulation (day 22), 1.11; in the series on blood coagulation (day 29), 1.13; in the series on blood coagulation (day 36), 1.19; with blood coagulation (day 43), 1.07. For the same substance, the “aPTT ratio (INR)” value in the series on blood coagulation (day 50) is 1.26; in the series with blood coagulation (day 57), 1.19; in the series with blood coagulation (day 64) it was 1.12; with blood coagulation (day 71) it was 1.18; in the series on blood coagulation (day 78), 1.18; in the series on blood coagulation (day 85), 1.25. Besides, the “aPTT ratio (INR)” value in the series with blood coagulation (day −5) and in the series on blood coagulation (day −14) was 1.00 each time.
For “ISIS 417002: MOE gapmer, nucleobases 1275 to 1318 of SEQ ID NO: 1 (Table 8) (antisense GGTGCACAGTTTCTGGCAGG; MOE gapmer, wing and gap sizes not given here)”, the “PT ratio (INR)” value with blood coagulation (day 8) is reported as 1.02; with blood coagulation (day 15), 1.04; in the series with blood coagulation (day 22), 1.04; in the series with blood coagulation (day 29), 1.01; in the series on blood coagulation (day 36), 1.05; with blood coagulation (day 43), 1.03. The “PT ratio (INR)” value with blood coagulation (day 50) worked out at 0.99; in the series on blood coagulation (day 57) it was 1.03; with blood coagulation (day 64), 1.03; in the series with blood coagulation (day 71) it was 0.99; in the series on blood coagulation (day 78) it was 1.02; in the series on blood coagulation (day 85) it was 1.02. Further, the “PT ratio (INR)” value with blood coagulation (day −5) and with blood coagulation (day −14) was 1.00 each time. Besides, the “aPTT ratio (INR)” value with blood coagulation (day 8) is recorded as 1.05; in the series with blood coagulation (day 15), 1.03; in the series with blood coagulation (day 22), 1.16; in the series with blood coagulation (day 29), 1.11; in the series on blood coagulation (day 36), 1.18; in the series with blood coagulation (day 43), 1.06. The “aPTT ratio (INR)” value turned out to be 1.18 in the series on blood coagulation (day 50); 1.22 with blood coagulation (day 57); 1.11 with blood coagulation (day 64); 1.16 in the series with blood coagulation (day 71); 1.18 in the series with blood coagulation (day 78); 1.20 in the series on blood coagulation (day 85). Further, the “aPTT ratio (INR)” value in the series with blood coagulation (day −5) and with blood coagulation (day −14) was 1.00 each time.
Turning to “ISIS 449707: 3-8-3, 4-8-4, 2-10-2, 3-10-3 or 4-10-4 MOE microwalk gapmer (Table 46) (antisense e[5mC]*eA*e[5mC]*eA*dG*dT*dT*dT*d[5mC]*dT*dG*dG*e[5mC]*eA*eG*eG)”, in series [1], the BUN is 24 mg/dL, the Creatinine was determined as 0.4 mg/dL and the Urine protein/creatinine ratio came to 3.2.
Take “ISIS 449708: 3-8-3, 4-8-4, 2-10-2, 3-10-3 or 4-10-4 MOE microwalk gapmer (Table 46) (antisense eA*e[5mC]*eA*dG*dT*dT*dT*d[5mC]*dT*dG*dG*e[5mC]*eA*eG)”: in series [1], the BUN is 24 mg/dL, the Creatinine is listed as 0.4 mg/dL and the Urine protein/creatinine ratio is reported as 5.7.
As for “ISIS 449709: 3-8-3, 4-8-4, 2-10-2, 3-10-3 or 4-10-4 MOE microwalk gapmer (Table 46) (antisense eG*e[5mC]*eA*e[5mC]*dA*dG*dT*dT*dT*d[5mC]*dT*dG*dG*d[5mC]*eA*eG*eG*e[5mC])”, in series [1], the BUN is recorded as 24 mg/dL, the Creatinine was determined as 0.4 mg/dL and the Urine protein/creatinine ratio worked out at 3.4.
With “ISIS 449710: 3-8-3, 4-8-4, 2-10-2, 3-10-3 or 4-10-4 MOE microwalk gapmer (Table 46) (antisense e[5mC]*eA*e[5mC]*dA*dG*dT*dT*dT*d[5mC]*dT*dG*dG*d[5mC]*eA*eG*eG)”, in series [1], the BUN is reported as 29 mg/dL, the Creatinine worked out at 0.3 mg/dL and the Urine protein/creatinine ratio worked out at 5.9.
For the substance “ISIS 449711: 3-8-3, 4-8-4, 2-10-2, 3-10-3 or 4-10-4 MOE microwalk gapmer (Table 46) (antisense eA*e[5mC]*dA*dG*dT*dT*dT*d[5mC]*dT*dG*dG*d[5mC]*eA*eG)”, in series [1], the BUN was determined as 28 mg/dL, the Creatinine is 0.4 mg/dL and the Urine protein/creatinine ratio is 7.3.
